Patent publication US20200061076A1, “METHODS OF TREATING LEUKODYSTROPHIES” (Ramot at Tel-Aviv University Ltd., priority 2017, published 2020)

What was measured:
Sig-1R = Sig-1R (Homo sapiens, UniProt Q99720); assay: Competitive displacement binding assay with [3H]haloperidol (Eurofins); settings: 10 μM compound
Description: Following, the direct binding of p8G5 to Sig-1R, was tested in-vitro by Eurofins labs (www(dot)cerep(dot)fr/cerep/users/pages/catalog/Affiche_CondExp_Test(dot)asp?test=889).

Mut MEFs [1] = assay: Survival under Tunicamycin-induced ER stress, Crystal Violet, MEFs; settings: 20 μM, 24 hours, Tunicamycin during the last 22 hours (FIGS. 9, 10 and 18)
Description: Mut MEFs were treated or not for 24 hours with the indicated concentrations of the indicated Sig-1R binders in the presence of 0.1 μg/ml Tunicamycin (Tun) during the last 22 hours. Following, the cells were washed, fixated and stained with Crystal Violet (CV) followed by measurement of absorbance at 570 nm. Shown is average % of CV staining relative to cells not treated with tunicamycin nor Sig-1R binder ±SEM of 3 independent experiments. *p<0.03.
Following, the cells were washed, fixated and stained with Crystal Violet and absorbance at 570 nm was measured. Data is presented relative to cells of the corresponding genotype not treated with p8G5 nor Tunicamycin. Shown is average % of CV staining ±SEM of 3 independent experiments.
Mut MEFs were treated or not for 24 hours with 10, 20 or 30 μM of the indicated Sig-1R binders in the presence of 50 ng/ml Tunicamycin (Tun) during the last 22 hours. Following, the cells were washed, fixated and stained with Crystal Violet (CV) followed by measurement of absorbance at 570 nm. Shown is % of CV staining relative to cells not treated with tunicamycin nor Sig-1R binder ±SEM of 3 independent experiments, *p<0.05.
Mut MEFs were incubated or not with the indicated concentrations of the indicated compounds for 2 hours followed by addition of 50 ng/ml Tunicamycin (Tun) for additional 22 hours, stained with Crystal Violet followed by measurement of absorbance at 570 nm. Shown is average normalized to Tun-treated cells without any compound ±SEM of 3 independent experiments. * not significant; ** p<0.02; *** all values p<0.04.

Mut MEFs [2] = assay: Oxygen consumption (Seahorse XF Cell Mito Stress Test), MEFs; format: cell-based, mouse; settings: for basal and ATP-linked respiration rate per mitochondrial DNA content: 6 hours (FIGS. 8A-B)
Description: Mut MEFs were treated or not for 6 hours with the indicated concentrations of the indicated Sig-1R binders. Oxygen consumption was measured in a XF96 Extracellular Flux Analyzer using the Seahorse XF Cell Mito Stress Test Kit. The Basal respiration (FIG. 7A) and ATP-linked respiration (FIG. 7B) data were normalized to biomass as determined by Crystal Violet staining.
Mut MEFs were treated or not for 6 hours with the indicated concentrations of the indicated Sig-1R binders. Oxygen consumption was measured in a XF96 Extracellular Flux Analyzer using the Seahorse XF Cell Mito Stress Test Kit. The Basal respiration (FIG. 8A), ATP-linked respiration (FIG. 8B) and maximal respiration (FIG. 8C) data was normalized to mtDNA content as detailed in FIG. 2.
(§1) The data were normalized to cell number, obtained by Crystal Violet staining, or to mtDNA content.

Mut MEFs [3] = assay: mtDNA quantification (qPCR of mitochondrial 12S rRNA and nuclear 18S rRNA genes), MEFs; format: cell-based, mouse; settings: 0.1 μM-1 μM, 6 hours incubation (FIG. 2)
Description: DNA extracted from WT and Mut MEFs that were treated or not for 6 hours with 0.1 μM, 1 μM or 10 μM of p8G5 (blue), Pre084 (known SIG-1R agonist, purple), pridopidine (known SIG-1R agonists, green) or NE-100 (known SIG-1R antagonist, yellow) was subjected to qPCR analysis of mitochondrial 12S rRNA and nuclear 18S rRNA genes.

Mut MEFs [4] = assay: TMRE staining, flow cytometry; format: cell-based, mouse; settings: 1 μM, 6 hours (FIGS. 5A-B)
Description: Mut MEFs were treated or untreated with the indicated concentrations of the indicated Sig-1R binders for 6 hours, stained by TMRE for 30 minutes and analyzed by flow cytometry. Shown are flow cytometry histograms and bar graphs representing % mean TMRE fluorescence intensity relative to non-treated WT cells of a representative experiment.
MEFs were seeded at a density of 4×10^4 cells per well in a 24-wells plate. 24 hours post-plating the cells were incubated with the tested compounds for additional 6 hours followed by staining with 200 nM Tetra-Methyl-Rhodamine-Ethyl esterperchlorate (TMRE) (Abcam) for 30 minutes at 37° C. Cells were removed by trypsinyzation, washed and resuspended in PBS. 5-10×10^3 cells were analyzed by Stratedigm S1000EXi cell sorter and FlowJo software (FLOWJO, LLC, Ashland, Oreg., USA).

Mut astrocytes [5] = assay: Survival under Tunicamycin-induced ER stress, Crystal Violet, astrocytes; format: cell-based, mouse; settings: 20-50 μM, 50 ng/ml Tunicamycin last 22 hours (FIG. 19)
Description: WT and Mut astrocytes were treated or not for 24 hours with 20, 30 or 50 μM of the indicated Sig-1R binders in the presence of 50 ng/ml Tunicamycin (Tun) during the last 22 hours. Following, the cells were washed, fixated and stained with Crystal Violet (CV) followed by measurement of absorbance at 570 nm. Shown is % of CV staining relative to cells not treated with tunicamycin nor Sig-1R binder ±SEM of 3 independent experiments, *p<0.05.
(§2) Cells were seeded on 96-wells plate at a density of 5000 cells per well. Astrocytes were seeded following coating with 0.001% PDL.

Mut primary astrocytes [6] = assay: Oxygen consumption (OCR), primary astrocytes; format: cell-based, mouse; settings: 1 or 10 μm, 6 hours, normalized to cell number (FIGS. 17B-C)
Description: (§3) Shown is average relative quantity (RQ) of 2-6 independent experiments normalized to their untreated controls ±SEM. […] Values of ATP-linked respiration (FIG. 17B) and maximal respiration (FIG. 17C) were analyzed and normalized to cell number.
as §1

Mut primary astrocytes [7] = assay: mtDNA quantification, primary astrocytes; format: cell-based, mouse; settings: 1 or 10 μm, 6 hours (FIG. 17A)
Description: as §3

Mut astrocytes [8] = assay: Cell survival assay, Crystal violet staining, Mut astrocytes; format: cell-based, mouse; settings: 24 hours, untreated cells set to 100%
Description: as §2

Sig-1R, sequence (Q99720 whole entry): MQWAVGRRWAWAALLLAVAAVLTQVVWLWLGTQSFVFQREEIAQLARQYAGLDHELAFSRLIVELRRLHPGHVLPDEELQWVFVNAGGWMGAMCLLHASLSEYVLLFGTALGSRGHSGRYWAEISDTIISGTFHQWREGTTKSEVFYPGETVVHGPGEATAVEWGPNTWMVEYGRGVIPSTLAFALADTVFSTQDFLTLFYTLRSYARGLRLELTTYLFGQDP

Cc1cccc(OCCCCCN2CCOCC2)c1 [H8 (p8G5), 4-[5-(3-methylphenoxy)pentyl]morpholine]
inhibition at 10 µM (Sig-1R): 92% | survival of Mut MEFs under Tunicamycin ER-stress (Mut MEFs [1]): attenuated the apoptotic effect | maximal respiration rate per mitochondrial content (Mut MEFs [2]; 1 μM, 6 hours (FIG. 8C)): increased the maximal respiration capacity per mitochondria to the level of untreated WT cells | basal and ATP-linked respiration rate per mitochondrial DNA content (Mut MEFs [2]; 1 μM): brought both parameters to WT levels | basal and ATP-linked respiration rate per mitochondrial DNA content (Mut MEFs [2]): statistically significant increase | basal respiration and ATP-linked respiration per cell (OCR) (Mut MEFs [2]; 6 hours, normalized to biomass (FIGS. 7A-B)): no effect | mitochondrial content in Mut MEFs (Mut MEFs [3]): lowered the abnormal high mitochondrial content | TMRE staining (mitochondrial membrane potential) (Mut MEFs [4]): increased TMRE staining to a level above that of untreated WT cells | survival rate of Mut astrocytes under ER-stress conditions (Mut astrocytes [5]): increased the survival rate | ATP-linked and maximal respiration in mutant astrocytes (Mut primary astrocytes [6]): increased both ATP-linked and maximal respiration | mitochondrial content per cell in astrocytes (Mut primary astrocytes [7]): no effect on mitochondrial content per cell | Survival (%) ± SEM Mut astrocytes (Mut astrocytes [8]; 1 μM): 108 ± 0.6% | Survival (%) ± SEM Mut astrocytes (Mut astrocytes [8]; 10 μM): 93 ± 2.1% | Survival (%) ± SEM Mut astrocytes (Mut astrocytes [8]; 30 μM): 92 ± 1.6%
